Reference: patent US7879795B2, “Enhancement of tigecycline potency using efflux pump inhibitors” (Mpex Pharmaceuticals, Inc., priority 2004, dated 2011)

Key:
[1] = In vitro stability in rat serum and tissue homogenates (LC/MS/MS); assay type: in vitro ADME; conditions: for stability in tissue homogenates at pH lowered to about 6 versus no pH change: rat kidney, liver, lung homogenates, acetic acid
Experimental: To test the stability of the compounds in vitro, samples were prepared and analyzed by LC/MS/MS according to the following procedure.
Homogenization: A chunk of fresh tissue was weighed and mixed with saline at 1:1 ratio (w/v) in a 12×75 mm polypropylene round bottom tube. The mixture was homogenized with a Polytron homogenizer (on ice, 3×10 seconds with 10 second intervals at the setting of 7).
Incubation and TCA-precipitation: An appropriate amount of a tissue homogenate was pre-warmed at 37° C. for 2 minutes in an Eppendorf tube. The compound to be tested was added to the tube to a final concentration of 2 μg/ml, mixed, and a 60 μl aliquot was immediately taken (as 0 hour sample) and mixed with 120 μl of 4% TCA (trichloroacetic acid) in an Eppendorf tube. The temperature of the tube containing the rest of the tissue sample was returned to 37° C. for incubation. Later, samples were taken as scheduled and mixed with TCA as described above. Plasma and lavage samples were directly incubated with the compounds without addition of saline and homogenization.
LC/MS/MS sample vial preparation: TCA-precipitated sample tubes were vortexed for 30 seconds, centrifuged in a microfuge at top speed (13.2 k rpm) for 5 minutes. The supernatant was collected. The pH was neutralized to about 3.5 with ammonium acetate buffer. The sample (45 μl) was transferred to a glass LC/MS/MS vial (Kimble, 11 mm, 1.5 ml) and 5 μl of an internal standard was added to a final concentration of 500 ng/ml. LC/MS/MS analysis was performed in Chemistry Department of San Diego State University.
LC/MS/MS protocol: Thermo-Finnigan TSQ Quantum triple sector mass spectrometer with electrospray (ESI) ionization was used to analyze the samples. The operation conditions were: Mobile phase of pH 3.00 water/formic acid: acetonitrile-methanol (45%:5%:50% by volume); Thermo-Keystone Betabasic C-18 column (2.1 mm×50 mm) operated at 0.100 mL/min.
Many proteases responsible for degrading EPI compounds are located in […]. Lysozymes typically have an acidic pH (about 4.8-5), whereas the pH in tissue homogenates that were prepared was higher (kidney, pH 6.8; liver, pH 6.6; and lung, pH 7.5). To test the effect of tissue homogenates closer to physiological conditions, the pH was lowered to about 6 by adding acetic acid to the tissue homogenates and compound stability was tested. FIG. 2 depicts the stability of compounds 1 and 3 at different pH. […] The pH-dependent degradation of compound 3 was especially evident in kidney homogenates.
FIG. 4 is a bar graph depicting the stability of compound 3 in the supernatant and pellet of kidney tissue homogenates.

[2] = test system: P. aeruginosa overexpressing (strain PAM1723) or lacking (PAM1626) efflux pumps; experiment: Stability in P. aeruginosa cultures; assay type: in vitro ADME; conditions: 50 μg/ml, PAM1723 and PAM1626
Experimental: Overnight cultures of two different strains of P. aeruginosa overexpressing (strain PAM1723) or lacking (PAM1626) efflux pumps were incubated with compounds 1 or 3 at 50 μg/ml for various times. Compounds were extracted using 4% TCA and analysed by LC/MC/MC.

[3] = test system: strain 29A2 of P. aeruginosa overexpressing MexAB-OprM efflux pump; experiment: Neutropenic mice lung model of PA infection; assay type: in vivo; conditions: for bacterial load in infected lungs, EPI with levofloxacin: levofloxacin 30 mg/kg SQ plus EPI IP
Experimental: Neutropenia was induced by cyclophosphamide 100 mg/kg IP on days 3 and 1 prior to infection. The strain 29A2 of P. aeruginosa overexpressing MexAB-OprM efflux pump was grown overnight in Mueller-Hinton Broth (MHB). The next day overnight culture was diluted in fresh MHB and was allowed to re-grow to ˜10^8 CFU/mL (OD600˜0.3). The culture was spun down, washed twice with phosphate buffered saline (PBS) and re-suspended in PBS to ˜4×10^7 CFU/mL. 50 μl of inoculum was used for intratracheal instillation of mice, which were anesthetized with sevoflourane/oxygen. […] Four mice from each treatment group were euthanized at various times after the start of treatment. The lungs were removed aseptically, homogenized in saline, and immediately plated to determine bacterial load (CFU/ml) in infected lungs. P. aeruginosa is plotted as a function of time in FIG. 20.

[4] = Tissue levels in rat six-hour after 8.4 mg/kg IV bolus; assay type: in vivo; conditions: rat kidney, liver and lung; 8.4 mg/kg IV bolus; in words
Experimental: Tissue levels of compounds 1, 2, 3 and 4 were evaluated in kidney, liver and lung six-hour after 8.4 mg/kg IV bolus administration. FIG. 13 depicts the levels as a function of time.
Compound 67, which is the expected metabolite of proteolytic intracellular degradation of compound 3, was detected in rat tissues after IV infusion, confirming the tissue-specific degradation of compound 3 (Tables 9A, B).

[5] = test system: PAM1723; conditions: Table 3
Experimental: Stability in rat and human serum was also evaluated using a bioassay. 320 μg/ml of the test compound was treated with 50% serum for 4 hours.
Bioassays as described in Example 62 and Example 65 were used to evaluate the stability of various compounds in serum and rabbit kidney homogenates.

[6] = test system: P. aeruginosa strain PAM 1032; experiment: Mouse model of P. aeruginosa sepsis infection (tigecycline 50% effective dose); assay type: in vivo
Experimental: Tigecycline and compound 21 were prepared in sterile 0.9% saline. Seventy Swiss-Webster mice (Harlan laboratories) with body weights ranging from 22 to 25 grams at the start of the study were used. Upon receipt, the animals were housed 5 per cage in a room with a controlled environment and were acclimated to laboratory conditions for at least 24 hours prior to the start of dosing. Animals were provided food and water ad libitum. The health status of the animals was determined during the acclimation period and unhealthy animals were not placed on study. Each animal was identified by marking their tails with indelible ink and each cage was identified by animal, group, and study number.
P. aeruginosa strain PAM 1032 was grown in Mueller-Hinton Broth (MHB) at 35° C. under constant aeration. After 20 hours, the inoculum was sub-cultured into fresh MHB and allowed to regrow at 35° C., under constant aeration, for 4 hours. The inoculum was adjusted to ca. 4×10^7 CFU/ml by correlation of absorbance at 600 nm with predetermined plate counts. The inoculum was then diluted 2-fold in 14% hog-gastric mucin (Sigma, St. Louis, Mo.) for a final inoculum concentration of 2×10^7 CFU/ml. […] At 0 and 2 hours following infection, tigecycline was administered by the subcutaneous route and compound 21 was administered by the intraperitoneal route. […] The susceptibility of the test strain (P. aeruginosa PAM1032, […] MexAB-OprM) to tigecycline was 4 ug/ml, the susceptibility of the test strain to tigecycline in the presence of 2.5 μg/mL of compound 21 was 0.25 μg/mL.

SMILES	compound left after 16 hrs of incubation ([1]; all of the tissues tested (rat serum, tissue homogenates), 37° C., 2 μg/ml)	stability in supernatant of rat kidney tissue homogenates ([1]; in words)	stability in tissue homogenates at pH lowered to about 6 versus no pH change [1]	stability in all of the tissues tested ([1]; rat, in words)	stability in cultures of tested bacterial strains [2]	growth of P. aeruginosa in infected lungs, EPI alone ([3]; EPI 100 mg/kg IP alone (0/100) versus no addition)	bacterial load in infected lungs, EPI with levofloxacin [3]	tissue levels at 6 hours after IV injection [4]	stability in supernatant versus pellet of kidney tissue homogenates ([1]; after 5 min. centrifugation)	stability in rat serum ([1]; in words)	stability in kidney and liver ([1]; rat tissue homogenates, in words)	EPI MPC8 after 4 hours at 37° C., Frosen Human serum ([5]; 50% human serum)	EPI MPC8 after 4 hours at 37° C., Frozen Rat serum ([5]; 50% rat serum)	EPI MPC8 after 4 hours at 37° C., Saline ([5]; saline)	50% effective dose of tigecycline in combination with compound 21 ([6]; mice, tigecycline SC, compound 21 IP at 0 and 2 hours)	improvement of tigecycline 50% effective dose ([6]; with compound 21)
NCCC[C@@H](N)C(=O)N[C@H](CCc1ccccc1)C(=O)Nc1cnc2ccccc2c1 [Compound 1, 2-(R),5-Diamino-pentanoic acid [3-phenyl-1-(R)-(quinolin-3-ylcarbamoyl)-propyl]-amide]	70-80%	neither compound 1 nor compound 4 show any instability	essentially unchanged	highly stable	stable	No difference in growth	significantly decreased bacterial load	relatively high levels	–	–	–	–	–	–	–	–
NCCC[C@H](N)C(=O)N[C@H](CCc1ccccc1)C(=O)Nc1cnc2ccccc2c1 [Compound 3, 2-(S),5-Diamino-pentanoic acid [3-phenyl-1-(R)-(quinolin-3-ylcarbamoyl)-propyl]-amide]	–	supernatant instability was selective to compound 3	degraded faster	–	stable	–	dose-dependent efficacy in levofloxacin potentiation	very low level	Greater instability	at least as stable as 1	more unstable than 1	5	5	5	–	–
NCCC[C@H](N)C(=O)N[C@H](Cc1ccc(C(F)(F)F)cc1)C(=O)Nc1cnc2ccccc2c1 [Compound 21, 2-(S),5-Diamino-pentanoic acid [1-(R)-(quinolin-3-ylcarbamoyl)-2-(4-trifluoromethyl-phenyl)-ethyl]amide]	–	–	–	–	–	–	–	–	–	–	–	–	–	–	approximately 75 mg/k	2.5 fold
